This experiment addresses human orexin type 2 receptor (hOX2R) (Homo sapiens (Human), UniProt O43614). Put plainly: Measurement of orexin type 2 receptor agonist activity (Experimental Example 2-1, FLIPR TETRA, intracellular Ca2+). To be noted: CHO dhfr- cells expressing hOX2R; for Emax: read-out: Emax (%); for Emax at 30 µM: value at 30 uM concentration, orexin B as full agonist = 100%. It counts as cell-based.

[1] abbreviates: agonist activity, 10 nM human orexin B = 100%.

EC50 and Emax data for 26 molecules are collected here from US10287305B2, “Substituted piperidine compound and use thereof” (Takeda Pharmaceutical Company Limited, priority 2016, dated 2019).

For orientation: EC50 means the concentration needed to bring the measured effect to its halfway point. A high value points to lower potency in that assay. What is called Emax is the size of the effect at its maximum, as opposed to the concentration needed.

Sequence of human orexin type 2 receptor (hOX2R) (O43614 whole entry): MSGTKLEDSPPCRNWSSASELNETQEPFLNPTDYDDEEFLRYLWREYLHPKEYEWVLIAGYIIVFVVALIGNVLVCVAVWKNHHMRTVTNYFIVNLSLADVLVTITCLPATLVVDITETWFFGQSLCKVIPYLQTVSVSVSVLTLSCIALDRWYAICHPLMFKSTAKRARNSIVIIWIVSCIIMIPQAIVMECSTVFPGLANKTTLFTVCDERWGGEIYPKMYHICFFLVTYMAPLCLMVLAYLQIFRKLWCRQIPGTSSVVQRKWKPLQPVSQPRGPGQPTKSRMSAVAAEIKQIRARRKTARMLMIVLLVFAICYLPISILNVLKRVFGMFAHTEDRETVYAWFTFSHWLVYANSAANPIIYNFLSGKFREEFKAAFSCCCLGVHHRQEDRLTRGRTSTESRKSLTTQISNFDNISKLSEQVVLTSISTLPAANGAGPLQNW

On to `CC(=O)N1CCC[C@H](NS(C)(=O)=O)[C@@H]1CO[C@H]1CC[C@@H](c2cccc(OC(F)(F)F)c2)CC1` (relative stereo) [Example 297, N-(cis-1-acetyl-2-(((cis-4-(3-(trifluoromethoxy)phenyl)cyclohexyl)oxy)methyl)piperidin-3-yl)methanesulfonamide], for which, where the note is “FLIPR TETRA, Fluo-4AM”, it took 2.1 µM to reach a half-maximal effect (EC50) and the Emax worked out at 76%.

As to `CC(=O)CCC(=O)N1CCC[C@H](NS(C)(=O)=O)[C@@H]1CO[C@H]1CC[C@@H](C(C)C)CC1` (relative stereo) [Example 75, N-(cis-2-(((cis-4-isopropylcyclohexyl)oxy)methyl)-1-(4-oxopentanoyl)piperidin-3-yl)methanesulfonamide], the Emax at 30 µM was 88%.

Consider `COC(=O)N1CCC[C@H](NS(C)(=O)=O)[C@@H]1CO[C@H]1C[C@@H](c2ccccc2)C1` (relative stereo) [Example 194, methyl cis-3-((methylsulfonyl)amino)-2-(((cis-3-phenylcyclobutyl)oxy)methyl)piperidine-1-carboxylate], for which, under “FLIPR TETRA, Fluo-4AM”, the Emax came out at 81%.

Consider `COc1cccc([C@H]2CC[C@@H](OC[C@@H]3NCCC[C@@H]3NS(C)(=O)=O)CC2)c1` (relative stereo) [Example 269, N-(cis-2-(((cis-4-(3-methoxyphenyl)cyclohexyl)oxy)methyl)piperidin-3-yl)methanesulfonamide], for which, under “FLIPR TETRA, Fluo-4AM”, the EC50 worked out at 3 µM and the maximum response (Emax) amounted to 95%.

With `CC(C)[C@H]1CC[C@@H](OC[C@H]2[C@@H](NS(C)(=O)=O)CCCN2S(=O)(=O)C2CC2)CC1` (relative stereo) [Example 62, N-(cis-1-(cyclopropylsulfonyl)-2-(((cis-4-isopropylcyclohexyl)oxy)methyl)piperidin-3-yl)methanesulfonamide], the Emax at 30 µM amounted to 93%. The EC50 under setting [1] was 2.3 µM.

With `CS(=O)(=O)N[C@H]1CCCN(C(=O)C2CC(=O)C2)[C@H]1COC1CCN(c2ccccc2F)CC1` (relative stereo) [Example 233, N-(cis-2-(((1-(2-fluorophenyl)piperidin-4-yl)oxy)methyl)-1-((3-oxocyclobutyl)carbonyl)piperidin-3-yl)methanesulfonamide], for the setting “FLIPR TETRA, Fluo-4AM”, the concentration giving a half-maximal response (EC50) came out at 5 µM and the maximal effect (Emax) was found to be 83%.

Turning to `CNC(=O)N1CCC[C@H](NS(C)(=O)=O)[C@@H]1CO[C@H]1CC[C@@H](C(C)C)CC1` [Example 102, (2R,3S)-2-(((cis-4-isopropylcyclohexyl)oxy)methyl)-N-methyl-3-((methylsulfonyl)amino)piperidine-1-carboxamide], the maximal response (Emax) at 30 µM worked out at 101%. Moreover, the 50% effective concentration (EC50) under setting [1] was 0.0012 µM.

Take `CS(=O)(=O)CC(=O)N1CCC[C@H](NS(C)(=O)=O)[C@@H]1CO[C@H]1CC[C@@H](c2ccccc2)CC1` [Example 181, N-((2R,3S)-1-((methylsulfonyl)acetyl)-2-(((cis-4-phenylcyclohexyl)oxy)methyl)piperidin-3-yl)methanesulfonamide]: the Emax (FLIPR TETRA, Fluo-4AM) amounted to 89%.

With `CS(=O)(=O)N[C@H]1CCCN[C@H]1COC1CCC(F)(c2cc(F)cc(F)c2)CC1` (relative stereo) [Example 325, N-(cis-2-(((4-(3,5-difluorophenyl)-4-fluorocyclohexyl)oxy)methyl)-piperidin-3-yl)methanesulfonamide], under “FLIPR TETRA, Fluo-4AM”, a half-maximal response (EC50) required 5 µM and the Emax stood at 75%.

Turning to `CC(C)CC(=O)N1CCC[C@H](NS(C)(=O)=O)[C@@H]1COC1CCN(c2ccccc2F)CC1` (relative stereo) [Example 230, N-(cis-2-(((1-(2-fluorophenyl)piperidin-4-yl)oxy)methyl)-1-(3-methylbutanoyl)piperidin-3-yl)methanesulfonamide], where the note is “FLIPR TETRA, Fluo-4AM”, the EC50 was 2.6 µM and the maximal effect (Emax) was found to be 80%.

For the molecule `CCNC(=O)N1CCC[C@H](NS(C)(=O)=O)[C@@H]1CO[C@H]1CC[C@@H](c2cccc(C(F)(F)F)c2)CC1` (relative stereo) [Example 207, cis-N-ethyl-3-((methylsulfonyl)amino)-2-(((cis-4-(3-(trifluoromethyl)phenyl)cyclohexyl)oxy)methyl)piperidine-1-carboxamide], for the setting “FLIPR TETRA, Fluo-4AM”, the concentration giving a half-maximal response (EC50) is 0.026 µM and the Emax came out at 110%.

On to `CC(C)OC(=O)N1CCC[C@H](NS(C)(=O)=O)[C@@H]1CO[C@H]1CCN(c2ncccn2)C[C@H]1F` (relative stereo) [Example 342, isopropyl cis-2-(((cis-3-fluoro-1-(pyrimidin-2-yl)piperidin-4-yl)oxy)methyl)-3-((methylsulfonyl)amino)piperidine-1-carboxylate], for which, where the note is “FLIPR TETRA, Fluo-4AM”, the EC50 came to 0.03 µM and the maximal response (Emax) stood at 104%.

For the molecule `CS(=O)(=O)N[C@H]1CCCN(C(=O)C2CC2(F)F)[C@H]1COC1CCN(c2ccccc2F)CC1` (relative stereo) [Example 225, N-(cis-1-((2,2-difluorocyclopropyl)carbonyl)-2-(((1-(2-fluorophenyl)piperidin-4-yl)oxy)methyl)piperidin-3-yl)methanesulfonamide], where the note is “FLIPR TETRA, Fluo-4AM”, the EC50 was 1 µM and the maximum response (Emax) is 98%.

Take `CCNC(=O)N1CCC[C@H](NS(C)(=O)=O)[C@@H]1CO[C@H]1CC[C@@H](c2ccc(F)c(F)c2)CC1` (relative stereo) [Example 144, cis-2-(((cis-4-(3,4-difluorophenyl)cyclohexyl)oxy)methyl)-N-ethyl-3-((methylsulfonyl)amino)piperidine-1-carboxamide]: for the setting “FLIPR TETRA, Fluo-4AM”, the response was half-maximal at 0.001 µM (EC50) and the maximal response (Emax) was 104%.

Turning to `CS(=O)(=O)N[C@H]1CCCN(C(=O)CO)[C@H]1CO[C@H]1CC[C@@H](c2cccc(F)c2F)CC1` [Example 25, N-((2R,3S)-2-(((cis-4-(2,3-difluorophenyl)cyclohexyl)oxy)methyl)-1-glycoloylpiperidin-3-yl)methanesulfonamide], the maximal effect (Emax) at 30 µM worked out at 94%. Under setting [1], this molecule came in with a concentration giving a half-maximal response (EC50) of 0.0079 µM.

Turning to `CC(C)[C@H]1CC[C@@H](OC[C@H]2[C@@H](NS(C)(=O)=O)CCCN2C(=O)CCc2ccccc2)CC1` (relative stereo) [Example 54, N-(cis-2-(((cis-4-isopropylcyclohexyl)oxy)methyl)-1-(3-phenylpropanoyl)piperidin-3-yl)methanesulfonamide], the maximal response (Emax) at 30 µM came out at 88%. In addition, a half-maximal response under setting [1] (EC50) required 4.1 µM.

In the case of `COC(=O)N1CCC[C@H](NS(=O)(=O)N(C)C)[C@@H]1CO[C@H]1CC[C@@H](c2ccccc2)CC1` [Example 309, methyl (2R,3S)-3-((dimethylsulfamoyl)amino)-2-(((cis-4-phenylcyclohexyl)oxy)methyl)-piperidine-1-carboxylate], where the note is “FLIPR TETRA, Fluo-4AM”, a half-maximal effect (EC50) was put at 0.0031 µM and the maximum response (Emax) came out at 106%.

With `CS(=O)(=O)N[C@H]1CCCN(C(=O)C2CC2)[C@H]1COC1CCN(c2ccccc2Cl)CC1` (relative stereo) [Example 201, N-(cis-2-(((1-(2-chlorophenyl)piperidin-4-yl)oxy)methyl)-1-(cyclopropylcarbonyl)piperidin-3-yl)methanesulfonamide], where the note is “FLIPR TETRA, Fluo-4AM”, the concentration giving a half-maximal response (EC50) turned out to be 2 µM and the Emax was found to be 92%.

`CS(=O)(=O)N[C@H]1CCCN(C(=O)OC2CC2)[C@H]1COC1CCN(c2ncccn2)CC1` (relative stereo) [Example 287, cyclopropyl cis-3-((methylsulfonyl)amino)-2-(((1-(pyrimidin-2-yl)piperidin-4-yl)oxy)methyl)piperidine-1-carboxylate]: for the setting “FLIPR TETRA, Fluo-4AM”, the half-maximal effective concentration (EC50) turned out to be 0.15 µM and the Emax is 99%.

On to `CC(C)OC(=O)N1CCC[C@H](NS(C)(=O)=O)[C@@H]1CO[C@H]1C[C@@H](c2ccccc2)C1` (relative stereo) [Example 307, isopropyl cis-3-((methylsulfonyl)mino)-2-(((cis-3-phenylcyclobutyl)oxy)methyl)-piperidine-1-carboxylate], for which, for the setting “FLIPR TETRA, Fluo-4AM”, the EC50 stood at 1.6 µM and the maximal effect (Emax) turned out to be 98%.

For `CCNC(=O)N1CCC[C@H](NS(C)(=O)=O)[C@@H]1CO[C@H]1CC[C@@H](c2ccccc2C#N)CC1` (relative stereo) [Example 263, cis-2-(((cis-4-(2-cyanophenyl)cyclohexyl)oxy)methyl)-N-ethyl-3-((methylsulfonyl)amino)piperidine-1-carboxamide], under “FLIPR TETRA, Fluo-4AM”, the midpoint of the response, the EC50, lay at 0.057 µM and the Emax is 88%.

As to `CS(=O)(=O)N[C@H]1CCCN(C(=O)C2CC2)[C@H]1CO[C@H]1CC[C@@H](c2ncccn2)CC1` (relative stereo) [Example 328, N-(cis-1-(cyclopropylcarbonyl)-2-(((cis-4-(pyrimidin-2-yl)cyclohexyl)oxy)methyl)piperidin-3-yl)methanesulfonamide], where the note is “FLIPR TETRA, Fluo-4AM”, the EC50 turned out to be 7.1 µM and the Emax is 72%.

With `CC(C)[C@H]1CC[C@@H](OC[C@H]2[C@@H](NS(C)(=O)=O)CCCN2S(C)(=O)=O)CC1` (relative stereo) [Example 36, N-(cis-2-(((cis-4-isopropylcyclohexyl)oxy)methyl)-1-(methylsulfonyl)piperidin-3-yl)methanesulfonamide], the Emax at 30 µM turned out to be 74%.

As for `CC(=O)N1CCC[C@H](NS(C)(=O)=O)[C@@H]1COC1CCC(c2ccccc2)C1` (relative stereo) [Example 337, N-(cis-1-acetyl-2-(((3-phenylcyclopentyl)oxy)methyl)-piperidin-3-yl)methanesulfonamide], where the note is “FLIPR TETRA, Fluo-4AM”, a half-maximal effect (EC50) was put at 2.4 µM and the Emax amounted to 88%.

Consider `CC(=O)OCC(=O)N1CCC[C@H](NS(C)(=O)=O)[C@@H]1CO[C@H]1CC[C@@H](C(C)C)CC1` (relative stereo) [Example 47, 2-(cis-2-(((cis-4-isopropylcyclohexyl)oxy)methyl)-3-((methylsulfonyl)amino)piperidin-1-yl)-2-oxoethyl acetate], for which the Emax at 30 µM was determined as 101%.

For `CCNC(=O)N1CCC[C@H](NS(C)(=O)=O)[C@@H]1CO[C@H]1CC[C@@H](c2cccc(F)c2F)CC1` (relative stereo) [Example 136, cis-2-(((cis-4-(2,3-difluorophenyl)cyclohexyl)oxy)methyl)-N-ethyl-3-((methylsulfonyl)amino)piperidine-1-carboxamide], under “FLIPR TETRA, Fluo-4AM”, the EC50 worked out at 0.00022 µM and the Emax was determined as 102%.
